Assays:
[1] = target: T1, P-gp (Homo sapiens, UniProt P08183); experiment: Rho123 uptake assay in primary human brain endothelial cells (HBMVEC); assay type: cell-based; details: agonist 1 μM, Rho123 2.5 μM
T1 construct: in human primary brain endothelial cells, HBMVEC, high P-gp expression was observed; host or cells: HBMVEC (primary human brain endothelial cells)
Procedure: (§1) Human brain endothelial cells and primary brain endothelial cells were plated onto 48-well plates until 100% confluence was reached, and media were replaced with fresh media containing Rho123 (2.5 μM) with different concentrations of Lexiscan®, NECA, or PSC833. Reaction was halted by adding 250 μl of ice-cold PBS. Plate was washed with 250 μl of ice-cold PBS 3 times and lysed with lysis buffer. Each sample was analyzed using Synergy Fluometer (Biotek), with excitation at 488 nm and emission at 523 nm. Concentration of Rho123 was analyzed using standard curve created by serial dilution of Rho123. Final concentration of Rho123 was normalized using protein concentration of lysate measured using Bradford assay (Bio-Rad). For microscopic analysis of Rho123 uptake, cells were cultured on coverslip and Rho123 was treated with or without Lexiscan® or NECA with DMSO as control. Reaction was terminated by adding ice-cold PBS and washed with ice-cold PBS 3 times. Cells were fixed with PFA and costained with anti-human P-gp. Cells were visualized with a Zeiss fluorescent microscope and captured with axiovision software. FIG. 4G is a schematic illustration of the Rho123 uptake assay.

[2] = tested on: P-gp; experiment: Western blot of P-gp expression in HCMEC-D3 cells; assay type: cell-based, human; details: 1 μM, up to 72 hours
Procedure: (§2) HCMEC-D3 and HBMVEC cells were plated in 12-well plates and were grown until they reached 100% confluency. The media was replaced with fresh media containing 1 μM of Lexiscan® or NECA with proper vehicle control (DMSO) for up to 72 hours. Cells were lysed by lysis buffer […] containing protease inhibitor cocktail and stored for later use (−70° C.). For cytoskeletal fraction analysis, cells were lysed in CSK buffer (100 mM NaCl, 300 mM sucrose, 3 mM MgCl2, 10 mM PIPES, pH 6.8). For brain samples, half of the brain was homogenized and lysed with […] lysis buffer and centrifuged at 17,000 g for 20 minutes and 1:10 diluted samples were used for analysis. Sample was loaded on 7% SDS PAGE at 100 V for 1 hour and transferred to the nitrocellulose paper. It was blocked with 1% BSA and incubated with anti-P-gp antibody (Genetex, 1:2000) overnight. Subsequently, it was washed with TBST and incubated with anti-rabbit secondary antibody (1:2000) for 1 hour. It was washed with TBST and developed with ECL substrate and exposed to x-ray film. Anti-GAPDH or −β-actin antibody was used as loading control. The intensity of band was analyzed with densitometric analysis and plotted as a graph for analysis of time-course effect of AR signaling on P-gp expression.

[3] = tested on: P-gp; experiment: Microscopic (IFA) analysis of Rho123 uptake in primary human brain endothelial cells; assay type: cell-based; details: 2.5 μM Rho123, 1 μM agonist, 15 minutes to 24 hours
Procedure: as §1

[4] = tested on: P-gp; experiment: P-gp expression in brain of WT mice (western blot, IFA of frozen section); assay type: in vivo, mouse
Procedure: as §2
Mice were treated with Lexiscan® or NECA at different time points and were infused with ice-cold PBS and sacrificed. Half of the brain was cut and put in the cassette and filled with OCT solution. Samples were snap-frozen with liquid nitrogen, cut with cryostat (10 μm) and fixed with acetone for 5 minutes, and incubated with C219 for P-gp stain (1:100) and Glut1 for endothelial cell marker (1:100) at 4° C. overnight. Sections were washed with PBS and additionally stained with secondary antibody conjugated with fluorochrome. Full images of the brain sections were visualized and recorded using Aperio Scan Scope (Leica Biosystems).

[5] = tested on: P-gp; experiment: Western blot of P-gp expression in MCF7 breast cancer cells; assay type: cell-based, human; details: 1 μM, 24, 48, 72 hours
Procedure: (§3) MCF7 cells (human breast cancer cell line) were cultured in 24 well plates until they reached confluency. FIGS. 17A-17C are images of western blots of cells treated with vehicle control (i.e., DMSO) (“D”) or 1 μM of the broad spectrum AR agonist NECA (“N”) (FIG. 17A), 1 μM of the A2A AR agonist Lexiscan® (“L”) (FIG. 17B), or 1 μM of the A2B AR agonist BAY60 (“B”) (FIG. 17C), respectively for 24, 48, 72 hours. Cells were lysed with lysis buffer and expression levels of P-gp, MMP9, or VEGF analyzed by western blot. GAPDH was used as loading a control. FIG. 17D is a graph of experimental results showing that Lexiscan® down-regulates P-gp expression in MCF7 breast cancer cells. MCF7 breast cancer cells were treated with Lex (0.25 μM) concomitant with Rhodamine 123 (“Rho123”). […] Students T test, P<0.001. […] FIG. 17E is a fluorescence microscopy image showing MCF7 breast cancer cells grown on coverslips and treated with vehicle (DMSO, control), or A2 AR agonists, Lexiscan® (1 μM) or A1193 (1 μM) for 15 minutes in the presence of epirubicin. Cells were stained with an antibody to P-gp and mounted with DAPI. FIG. 17F is a graph of the fluorescent intensity quantified from FIG. 17E by measuring the mean fluorescent intensity (“MFI”) of epirubicin (pink) that is present in cell nuclei. ***=P<0.0001.

[6] = tested on: P-gp; experiment: Epirubicin accumulation and P-gp staining in MCF7 cells (fluorescence microscopy); assay type: cell-based, human; details: 1 μM
Procedure: as §3
To further assess the modulation of A2A AR agonists on P-gp expression in MCF7 cells, applicants evaluated the accumulation of the P-gp substrate epirubicin in MCF7 cells. MCF7 cells were treated with DMSO (control), 1 μM Lexiscan®, or 1 μM of the A2A AR agonist A1193. […] In this case, the down-regulation of P-gp expression is equivalent to down-regulation of its function (Kim et al., “A2A Adenosine Receptor Modulates Drug Efflux Transporter P-Glycoprotein at the Blood-Brain Barrier,” J Clin Invest. 126(5):1717-33 (2016), which is hereby incorporated by reference in its entirety).

T1 sequence (P08183 whole entry): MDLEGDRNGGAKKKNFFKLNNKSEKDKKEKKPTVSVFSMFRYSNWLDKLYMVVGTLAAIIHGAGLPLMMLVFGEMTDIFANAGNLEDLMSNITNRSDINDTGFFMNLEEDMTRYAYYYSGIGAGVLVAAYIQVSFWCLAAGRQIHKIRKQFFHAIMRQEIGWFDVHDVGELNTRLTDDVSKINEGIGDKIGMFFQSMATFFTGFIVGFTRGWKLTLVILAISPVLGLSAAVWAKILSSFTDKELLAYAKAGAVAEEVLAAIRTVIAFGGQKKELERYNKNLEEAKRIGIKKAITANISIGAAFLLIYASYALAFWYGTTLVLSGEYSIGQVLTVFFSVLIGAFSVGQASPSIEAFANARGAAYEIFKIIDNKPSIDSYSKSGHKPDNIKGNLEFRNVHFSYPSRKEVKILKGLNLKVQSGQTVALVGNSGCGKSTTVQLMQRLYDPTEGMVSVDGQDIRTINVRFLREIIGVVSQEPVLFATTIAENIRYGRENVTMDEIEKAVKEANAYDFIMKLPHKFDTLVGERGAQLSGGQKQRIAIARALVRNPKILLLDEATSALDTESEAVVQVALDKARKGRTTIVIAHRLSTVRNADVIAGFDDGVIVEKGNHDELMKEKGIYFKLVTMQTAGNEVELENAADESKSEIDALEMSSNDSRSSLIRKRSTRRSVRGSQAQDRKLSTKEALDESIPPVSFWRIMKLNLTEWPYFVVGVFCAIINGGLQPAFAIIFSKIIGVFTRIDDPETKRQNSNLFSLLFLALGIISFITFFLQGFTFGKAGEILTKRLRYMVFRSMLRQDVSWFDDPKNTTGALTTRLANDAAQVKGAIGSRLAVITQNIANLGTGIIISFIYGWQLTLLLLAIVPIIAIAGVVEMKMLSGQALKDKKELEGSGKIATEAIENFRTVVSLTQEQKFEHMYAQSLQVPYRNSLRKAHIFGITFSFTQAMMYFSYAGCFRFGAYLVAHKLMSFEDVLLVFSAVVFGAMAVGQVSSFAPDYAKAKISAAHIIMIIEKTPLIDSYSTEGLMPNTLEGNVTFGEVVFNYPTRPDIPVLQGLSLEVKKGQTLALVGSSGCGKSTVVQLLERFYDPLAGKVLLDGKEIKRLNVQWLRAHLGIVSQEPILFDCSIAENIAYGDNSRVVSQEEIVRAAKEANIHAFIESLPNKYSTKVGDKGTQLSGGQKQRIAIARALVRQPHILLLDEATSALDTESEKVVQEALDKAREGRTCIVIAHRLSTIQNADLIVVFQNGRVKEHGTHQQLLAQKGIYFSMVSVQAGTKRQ

CCNC(=O)[C@H]1O[C@@H](n2cnc3c(N)ncnc32)[C@H](O)[C@@H]1O [NECA, (2S,3S,4R,5R)-5-(6-aminopurin-9-yl)-N-ethyl-3,4-dihydroxyoxolane-2-carboxamide]
Rho123 uptake / P-gp function [1]: showed a trend in P-gp suppression, but it did not reach statistical significance | P-gp expression (western blot, vs DMSO control) [2]: decreased P-gp expression for up to 4 hours | Rho123 accumulation visualized by IFA [3]: increased Rho123 accumulation at later time points, beginning at 4 hours; this was maintained for up to 24 hours | P-gp expression level in brain ([4]; 2 and 18 hours after NECA): gradual decrease in P-gp expression level, beginning at 2 hours; this was maintained for up to 18 hours | P-gp expression (western blot) [5]: decreased P-gp expression in cultured MCF7 cells at 48 and 72 hour time points

CNC(=O)c1cnn(-c2nc(N)c3ncn([C@@H]4O[C@H](CO)[C@@H](O)[C@H]4O)c3n2)c1 [Lexiscan®, 1-[6-amino-9-[(2R,3R,4S,5R)-3,4-dihydroxy-5-(hydroxymethyl)oxolan-2-yl]purin-2-yl]-N-methylpyrazole-4-carboxamide]
P-gp expression (western blot, vs DMSO control) [2]: rapid decrease in P-gp expression beginning at 30 minutes, which was maintained for up to 1 hour | Rho123 accumulation visualized by IFA [3]: increased the accumulation of Rho123 beginning at 15 minutes to 1 hour | Time at which effect on P-gp occurred [4]: ≤ 5 min | P-gp expression in brain endothelial cells ([4]; Lexiscan® treatment, 5 to 60 minutes): decreased P-gp expression in brain endothelial cells in WT mice between 5 and 15 minutes; this was recovered by 30 minutes | P-gp expression (western blot) [5]: decreased P-gp expression in cultured MCF7 cells at 48 and 72 hour time points | P-gp expression (antibody staining) ([6]; 15 minutes): down-regulate P-gp expression | Epirubicin accumulation (MFI in cell nuclei) ([6]; 15 minutes in the presence of epirubicin): retained more epirubicin than those treated with control
